{"source": "patent US20040127739A1", "about": "“Novel n-p-propargyloxyphenethyl-thioacetic acid amides” (priority 2001, published 2004)", "format_in_all_cases": "in vivo", "key": {"Plasmopara viticola": {"system": "Plasmopara viticola", "test": "Action against Plasmopara viticola on vines (residual-protective / residual-curative)", "conditions": "vine seedlings, untreated plants showed pathogen attack of 80% to 100%, read-out: inhibition of fungal infestations", "procedure": "Action Against Plasmopara viticola on Vines a) Residual-protective Action\nVine seedlings are sprayed at the 4- to 5-leaf stage with a spray mixture (0.02% active ingredient) prepared from a wettable powder formulation of the test compound. After 24 hours, the treated plants are infected with a sporangia suspension of the fungus. Fungus infestation is evaluated after incubation for 6 days at 95-100% relative humidity and +20° C. […]\nb) Residual-curative Action\nVine seedlings are infected at the 4- to 5-leaf stage with a sporangia suspension of the fungus. After incubation for 24 hours in a humidity chamber at 95-100% relative humidity and +20° C., the infected plants are dried and sprayed with a spray mixture (0.02% active ingredient) prepared from a wettable powder formulation of the test compound. After the spray coating has dried, the treated plants are placed in the humidity chamber again. Fungus infestation is evaluated 6 days after infection."}, "Phytophthora [1]": {"system": "Phytophthora", "test": "Action against Phytophthora on tomato plants (residual-protective / systemic)", "conditions": "untreated plants showed pathogen attack of 80% to 100%, read-out: inhibition of fungal infestations", "procedure": "Action Against Phytophthora on Tomato Plants\n(§1) a) Residual-protective Action\n(§2) After a cultivation period of 3 weeks, tomato plants are sprayed with a spray mixture (0.02% active ingredient) prepared from a wettable powder formulation of the test compound. After 48 hours, the treated plants are infected with a sporangia suspension of the fungus. Fungus infestation is evaluated after incubation of the infected plants for 5 days at 90-100% relative humidity and +20° C.\nas §2, with “watered” for “sprayed”, “ingredient based on the volume of the soil)” for “ingredient)”, “compound. […]” for “compound.”, “96” for “48”, “4” for “5”"}, "Phytophthora [2]": {"system": "Phytophthora", "test": "Action against Phytophthora on potato plants (residual-protective / systemic)", "conditions": "potato plants (Bintje variety), untreated plants showed pathogen attack of 80% to 100%, read-out: inhibition of fungal infestations", "procedure": "Action Against Phytophthora on Potato Plants\nas §1\n(§3) 2-3 week old potato plants (Bintje variety) are sprayed with a spray mixture (0.02% active ingredient) prepared from a wettable powder formulation of the test compound. After 48 hours, the treated plants are infected with a sporangia suspension of the fungus. Fungus infestation is evaluated after incubation of the infected plants for 4 days at 90-100% relative humidity and +20° C.\nas §3, with “watered” for “sprayed”, “ingredient based on the volume of the soil)” for “ingredient)”, “compound. […]” for “compound.”"}}, "data": [{"smiles": "C#CCOc1ccc(CCNC(=S)C(OC(C)=O)c2ccc(Cl)cc2)cc1OC", "note": "(stereo not shown) [Compound A1.03, 2-acetoxy-2-(4-chloro-phenyl)-N-[2-(3-methoxy-4-prop-2-ynyloxy-phenyl)-ethyl]-thioacetamide]", "values": [{"measurement": "inhibition at 200 ppm", "setting": "Plasmopara viticola", "result": "80 to 100", "unit": "%"}, {"measurement": "inhibition at 200 ppm", "setting": "Phytophthora [1]", "result": "80 to 100", "unit": "%"}, {"measurement": "inhibition at 200 ppm", "setting": "Phytophthora [2]", "result": "80 to 100", "unit": "%"}]}, {"smiles": "C#CCOc1ccc(CCNC(=S)C(O)c2ccc(Cl)cc2)cc1OC", "note": "(stereo not shown) [Compound A2.01, 2-(4-Chloro-phenyl)-2-hydroxy-N-[2-(3-methoxy-4-prop-2-ynyloxy-phenyl)-ethyl]-thioacetamide]", "values": [{"measurement": "inhibition at 200 ppm", "setting": "Plasmopara viticola", "result": "80 to 100", "unit": "%"}, {"measurement": "inhibition at 200 ppm", "setting": "Phytophthora [1]", "result": "80 to 100", "unit": "%"}, {"measurement": "inhibition at 200 ppm", "setting": "Phytophthora [2]", "result": "80 to 100", "unit": "%"}]}, {"smiles": "C#CCOc1ccc(CCNC(=S)C(O)c2ccc(Br)cc2)cc1OC", "note": "(stereo not shown) [Compound A2.02, 2-(4-bromo-phenyl)-2-hydroxy-N-[2-(3-methoxy-4-prop-2-ynyloxy-phenyl)-ethyl]-thioacetamide]", "values": [{"measurement": "inhibition at 200 ppm", "setting": "Plasmopara viticola", "result": "80 to 100", "unit": "%"}, {"measurement": "inhibition at 200 ppm", "setting": "Phytophthora [1]", "result": "80 to 100", "unit": "%"}, {"measurement": "inhibition at 200 ppm", "setting": "Phytophthora [2]", "result": "80 to 100", "unit": "%"}]}, {"smiles": "C#CCOc1ccc(CCNC(=S)C(OCC#C)c2ccc(Cl)cc2)cc1OC", "note": "(stereo not shown) [Compound A1.01, 2-(4-Chloro-phenyl)-N-[2-(3-methoxy-4-prop-2-ynyloxy-phenyl)-ethyl]-2-(prop-2-ynyloxy)-thioacetamide]", "values": [{"measurement": "inhibition at 200 ppm", "setting": "Plasmopara viticola", "result": "80 to 100", "unit": "%"}, {"measurement": "inhibition at 200 ppm", "setting": "Phytophthora [1]", "result": "80 to 100", "unit": "%"}, {"measurement": "inhibition at 200 ppm", "setting": "Phytophthora [2]", "result": "80 to 100", "unit": "%"}]}, {"smiles": "C#CCOc1ccc(CCNC(=S)C(OCC#C)c2ccc(Br)cc2)cc1OC", "note": "(stereo not shown) [Compound A1.02, 2-(4-bromo-phenyl)-N-[2-(3-methoxy-4-prop-2-ynyloxy-phenyl)-ethyl]-2-(prop-2-ynyloxy)-thioacetamide]", "values": [{"measurement": "inhibition at 200 ppm", "setting": "Plasmopara viticola", "result": "80 to 100", "unit": "%"}, {"measurement": "inhibition at 200 ppm", "setting": "Phytophthora [1]", "result": "80 to 100", "unit": "%"}, {"measurement": "inhibition at 200 ppm", "setting": "Phytophthora [2]", "result": "80 to 100", "unit": "%"}]}, {"smiles": "C#CCOc1ccc(CCNC(=S)C(OC(C)=O)c2ccc(Br)cc2)cc1OC", "note": "(stereo not shown) [Compound A1.04, 2-acetoxy-2-(4-bromo-phenyl)-N-[2-(3-methoxy-4-prop-2-ynyloxy-phenyl)-ethyl]-thioacetamide]", "values": [{"measurement": "inhibition at 200 ppm", "setting": "Phytophthora [2]", "result": "80 to 100", "unit": "%"}]}]}
